{"source": "paper PMC10410440", "about": "“Preclinical PK investigation of a novel IDO1/TDO dual inhibitor—SHR9146 in mouse plasma and tissues by LC-MS/MS” (Frontiers in Oncology, 2023)", "origin": "cited, not measured here", "test_system": "advanced solid tumors", "design": "method as in doi:10.1200/JCO.2021.39.15_suppl.3101", "details": "SHR9146 plus camrelizumab in combination with/without apatinib; cited from earlier work", "data": [{"smiles": "OCCn1cc(-c2ccc(N3CCC([C@H]4c5c(F)cccc5-c5cncn54)CC3)cc2)cn1", "note": "[SHR9146]", "values": [{"measurement": "antitumor activity and safety in patients", "result": "promising antitumor activity with acceptable safety"}]}]}
